In PMC3476531, “Synergy of Peptide and Sugar in O-GlcNAcase Substrate Recognition” (Chemistry & Biology, 2012):

How the values were obtained:
hOGA = target: T1, hOGA (Homo sapiens, UniProt O60502); assay: hOGA glycopeptide hydrolysis, substrate competition assay with 4MU-GlcNAc reporter; type: biochemical; design: GST (N); made in house; host or cells: transiently transfected HEK293 cells; conditions: wild-type full-length hOGA; competition with 4MU-GlcNAc reporter substrate; 37°C, 50 mM citrate-phosphate buffer pH 7.4, 0.1 mg/ml BSA; triplicate; ± error of curve-fit; read-out: Michaelis constant (KM) of glycopeptide substrate for hOGA
T1 sequence (O60502 1-916): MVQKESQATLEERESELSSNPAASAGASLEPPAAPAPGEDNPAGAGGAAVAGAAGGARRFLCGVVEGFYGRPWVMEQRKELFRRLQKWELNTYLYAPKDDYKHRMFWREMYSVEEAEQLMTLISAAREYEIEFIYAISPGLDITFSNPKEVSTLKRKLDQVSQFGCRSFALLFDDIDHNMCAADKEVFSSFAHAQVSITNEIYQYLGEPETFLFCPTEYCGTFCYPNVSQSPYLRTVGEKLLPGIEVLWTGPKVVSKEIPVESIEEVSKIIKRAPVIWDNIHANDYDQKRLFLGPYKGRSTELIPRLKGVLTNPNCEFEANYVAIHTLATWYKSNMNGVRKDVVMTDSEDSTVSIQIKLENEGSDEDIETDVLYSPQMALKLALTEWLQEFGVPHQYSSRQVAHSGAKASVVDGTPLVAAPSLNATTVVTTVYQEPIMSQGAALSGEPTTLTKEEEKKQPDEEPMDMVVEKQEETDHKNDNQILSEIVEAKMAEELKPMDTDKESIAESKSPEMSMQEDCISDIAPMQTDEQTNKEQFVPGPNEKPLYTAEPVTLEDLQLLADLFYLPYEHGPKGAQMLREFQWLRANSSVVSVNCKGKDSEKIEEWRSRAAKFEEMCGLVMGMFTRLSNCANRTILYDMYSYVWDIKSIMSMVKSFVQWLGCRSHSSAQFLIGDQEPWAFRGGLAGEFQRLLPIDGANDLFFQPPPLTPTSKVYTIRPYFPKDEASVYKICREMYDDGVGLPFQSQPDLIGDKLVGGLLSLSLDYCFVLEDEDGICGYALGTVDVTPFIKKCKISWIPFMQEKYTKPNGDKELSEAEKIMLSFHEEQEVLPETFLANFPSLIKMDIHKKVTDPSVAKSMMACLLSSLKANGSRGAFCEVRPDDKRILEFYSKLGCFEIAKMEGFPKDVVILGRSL
Experimental: Protein was expressed in transiently transfected HEK293 cells and purified via glutathione sepharose affinity chromatography.
hOGA and CpOGA glycopeptide hydrolysis assays were carried out as described previously ([Dorfmueller et al., 2006; Schimpl et al., 2010]) using multisubstrate enzyme kinetics with the fluorigenic pseudosubstrate 4MU-GlcNAc as the reporter substrate. […] Reactions were performed at 37°C in 50 mM citrate-phosphate buffer (pH 7.4) and 0.1 mg/ml BSA. Experiments were performed in triplicate, and data were analyzed and plotted with GraphPad PRISM.

[1] = target: T2, human O-GlcNAcase (hOGA), wild-type (human) (UniProt O60502)
T2 sequence: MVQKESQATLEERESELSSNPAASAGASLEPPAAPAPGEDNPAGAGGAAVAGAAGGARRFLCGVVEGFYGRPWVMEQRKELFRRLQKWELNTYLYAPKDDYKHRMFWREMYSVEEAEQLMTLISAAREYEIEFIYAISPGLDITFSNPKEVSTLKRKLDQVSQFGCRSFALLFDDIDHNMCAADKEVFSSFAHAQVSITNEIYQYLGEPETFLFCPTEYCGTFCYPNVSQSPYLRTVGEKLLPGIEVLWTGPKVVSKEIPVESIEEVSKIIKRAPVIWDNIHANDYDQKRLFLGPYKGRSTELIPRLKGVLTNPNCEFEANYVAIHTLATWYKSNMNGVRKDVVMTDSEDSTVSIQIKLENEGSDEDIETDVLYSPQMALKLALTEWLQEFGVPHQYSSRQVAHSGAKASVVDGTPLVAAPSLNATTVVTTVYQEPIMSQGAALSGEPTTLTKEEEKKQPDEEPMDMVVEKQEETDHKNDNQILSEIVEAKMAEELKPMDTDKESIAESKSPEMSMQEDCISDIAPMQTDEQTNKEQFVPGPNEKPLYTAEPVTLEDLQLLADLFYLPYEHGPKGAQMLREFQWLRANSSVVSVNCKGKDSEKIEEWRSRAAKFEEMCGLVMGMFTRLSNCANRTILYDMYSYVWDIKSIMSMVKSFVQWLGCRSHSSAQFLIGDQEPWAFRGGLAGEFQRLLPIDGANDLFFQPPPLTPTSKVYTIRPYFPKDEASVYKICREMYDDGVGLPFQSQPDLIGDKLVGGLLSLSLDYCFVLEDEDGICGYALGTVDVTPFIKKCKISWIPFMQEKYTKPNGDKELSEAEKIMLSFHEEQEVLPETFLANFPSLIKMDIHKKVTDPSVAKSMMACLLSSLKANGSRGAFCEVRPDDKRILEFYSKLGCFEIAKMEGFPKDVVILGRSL

Row | Km (hOGA) | KM (hOGA) of the glycopeptide substrate (substrate competition assay with 4MU-GlcNAc as reporter substrate) [1] | Substance
1 | 1.8 mM | – | QLVVS(O-GlcNAc)TPPPG [altered p53 glycopeptide with intramolecular hydrogen bond disrupted]
2 | 3.7 mM | – | QLVVS(O-GlcNAc)VPPPG [altered p53 glycopeptide with intramolecular hydrogen bond disrupted]
3 | 0.81 ± 0.14 mM | – | VPHS(O-GlcNAc)SAQ
4 | – | 21 µM | p53 peptide (Ser149) QLVDS(O-GlcNAc)TPPPG, original sequence of Table 2
